Measured values published in paper PMC7272617 (Scientific Reports, 2020).
Converted amounts (≈) assume the structure as drawn. Where a SMILES comes first, the peptide text is derived from it.

How the values were obtained:
[1] = tested on: MDR P. aeruginosa clinical isolate No.7; details: MDR clinical isolate No.7, 24 h
[2] = tested on: P. aeruginosa ATCC 27853; test: Time-killing kinetics; format: cell-based, Pseudomonas aeruginosa
Method: The bacterial killing kinetics of PA-13 was assessed by evaluating the time course to kill suspensions of P. aeruginosa ATCC 27853 as described previously. […] Plates were incubated at 37 °C to determine the number of CFU after 24 h; the assays were performed in triplicate.

[3] = tested on: MDR P. aeruginosa clinical isolate No.9; details: MDR clinical isolate No.9, 24 h
[4] = tested on: all Gram-negative strains; test: Mean MIC and therapeutic index, Gram-negative strains; format: cell-based; details: 7 Gram-negative strains of Table 3
[5] = tested on: P. aeruginosa ATCC 27853; test: Membrane-penetrating activity of TAMRA-labelled peptide, flow cytometry; format: cell-based, Pseudomonas aeruginosa; details: 1 × MIC, measured with TAMRA-labelled PA-13
Method: To clarify whether bacterial membrane permeabilization resulted from peptide uptake, the interaction of TAMRA-labelled PA-13 with the membrane of bacteria cells was investigated by flow cytometry. […] After incubation, unbound labelled peptide was removed by washing with PBS. Then the fluorescence signal from treated cells was determined by flow cytometry (CytoFlex, Beckman Coulter).

[6] = tested on: Bacillus cereus ATCC 11778; details: ATCC 11778, 24 h
[7] = tested on: MDR P. aeruginosa clinical isolate No.10; details: MDR clinical isolate No.10, 24 h
[8] = tested on: human red blood cells (hRBCs); test: Hemolytic activity, hemoglobin release
Method: Hemolytic activity of the peptides was assayed against human red blood cells (hRBCs) by measuring the amount of hemoglobin released after treatment. The hRBCs, freshly collected from a healthy volunteer in polycarbonate tubes containing heparin, were washed three times in sterile phosphate buffered saline (PBS) and centrifuged at 2,000 × g for 5 min or until the supernatant became clear. […] After 1 h of incubation at 37 °C, intact hRBCs were pelleted by centrifugation at 2,000 × g for 10 min. The supernatant was transferred to a new 96-well plate and the release of hemoglobin was monitored by measurement of absorbance at 405 nm using a Multiskan FC microplate reader. The hRBCs in PBS only (ODBlank) and in 0.1% Triton X-100 (ODTriton X-100) were employed as negative (0% hemolysis) and positive (100% hemolysis) controls, respectively. The percentage of hemolysis was calculated according to the following equation: %Hemolysis=(ODSample−ABlank)/(ODTritonX−100−ODBlank)×100

[9] = tested on: Enterococcus faecalis ATCC 29212; details: ATCC 29212, 24 h
[10] = tested on: MDR P. aeruginosa clinical isolate No.8; details: MDR clinical isolate No.8, 24 h
[11] = tested on: P. aeruginosa ATCC 27853; details: ATCC 27853, 24 h
[12] = tested on: P. aeruginosa ATCC 27853; test: Salt sensitivity: MIC in the presence of physiological salts; format: cell-based, Pseudomonas aeruginosa
Method: The antimicrobial activity of the peptides was determined against both Gram-positive and -negative bacteria including 14 MDR P. aeruginosa clinical isolates from Bhumibol Adulyadej Hospital (Tables 1 and 3). The minimal inhibitory concentration (MIC) of each peptide was measured according to a modification of the National Committee for Clinical Laboratory Standards (NCCLS) broth microdilution method as previously described. Briefly, bacterial cells in mid-log phase were cultured in Müeller-Hinton broth (MHB) and then diluted to 10^7 CFU/ml. Fifty microliters of 2-fold serially diluted peptides, with concentrations ranging from 0.98 to 250 μg/ml in 0.01% (vol/vol) acetic acid and 0.2% (wt/vol) bovine serum albumin (BSA, Sigma), were added to each well of sterile 96-well plates, followed by 50 μl of bacterial solution. Plates were incubated at 37 °C for 24 h, and MICs were defined as the lowest concentration of peptide that prevented visible turbidity. Cultures without peptides and uninoculated MHB were employed as positive and negative controls, respectively. Colony count assays were performed to determine the minimal bactericidal concentrations (MBCs) for determination of time-killing activity. As previously described, a 50 μl aliquot from each non-turbid well identified in the MIC determination experiment was spread on agar plates. MBCs were defined as the lowest concentration of peptides where no colony growth was observed on agar plates after 24 h incubation at 37 °C.
To test the effect of salts on the antibacterial activity of PA-13, the mid-logarithmic phase (10^7 CFU/ml) of P. aeruginosa ATCC 27853 was exposed to different concentrations of PA-13 in the presence of different physiological salts: 150 mM NaCl; 4.5 mM KCl; 1 mM MgCl2; 6 µM NH4Cl; 8 µM ZnCl2; 4 µM FeCl3; […][22]. After these treatments, the MICs were determined as described above.

[13] = tested on: Staphylococcus aureus ATCC 25923; details: ATCC 25923, 24 h

**Q.** Which MIC [1] does the source give for `CC[C@H](C)[C@H](NC(=O)[C@H](CCCNC(=N)N)NC(=O)[C@H](CCCCN)NC(=O)[C@H](C)NC(=O)[C@@H](NC(=O)[C@@H](N)CCCCN)[C@@H](C)CC)C(=O)N[C@@H](Cc1c[nH]c2ccccc12)C(=O)N[C@@H](CCCCN)C(=O)N[C@H](C(=O)N[C@@H](CC(C)C)C(=O)N[C@@H](CCCNC(=N)N)C(=O)N[C@@H](CCCNC(=N)N)C(=O)N[C@@H](CCCNC(=N)N)C(N)=O)[C@@H](C)CC` [PA-13] (H-KIAKRIWKILRRR-NH2; N-terminus assumed) here?
**A.** The MIC was 7.81 µg/mL (≈ 4.5 µM).

**Q.** What about the “P. aeruginosa count within 30 min at MIC” value [2] of the same compound?
**A.** The value was “approximately 10^4 CFU/ml”.

**Q.** What about the “time to complete killing (no regrowth)” value ([2]; at MBC) of the same compound?
**A.** Its value is ≤ 4 h.

**Q.** And the “time to eradicate most bacteria” value ([2]; at MIC (and MBC))?
**A.** The value was ≤ 2 h.

**Q.** And the “regrowth after 24 h treatment” value ([2]; at MIC, result in words)?
**A.** Its value is “regrowth was observed”.

**Q.** What about the “P. aeruginosa count within 30 min at MBC” value ([2]; start 10^7 CFU/ml, MBC (7.81 μg/ml), MHB, 37 °C) of the same compound?
**A.** The value was ~10^2 CFU/ml.

**Q.** What about the MIC [3] of the same compound?
**A.** The MIC was 7.81 µg/mL (≈ 4.5 µM).

**Q.** What about the “GM (Gr.− strains): geometric mean of MIC values from all Gram-negative strains” value [4] of the same compound?
**A.** Its value is 15.90 µg/mL.

**Q.** What about the “time to binding and penetration” value [5] of the same compound?
**A.** The value was ≤ 5 min.

**Q.** What about the MIC [6] of the same compound?
**A.** The MIC was 15.63 µg/mL (≈ 9 µM).

**Q.** And the MIC [7]?
**A.** The MIC was 7.81 µg/mL (≈ 4.5 µM).

**Q.** And the “hemolytic activity at the MIC” value [8]?
**A.** Its value is “less than 2%”.

**Q.** And the MIC [9]?
**A.** The MIC was 250 µg/mL (≈ 144 µM).

**Q.** What about the MIC [10] of the same compound?
**A.** The MIC was 7.81 µg/mL (≈ 4.5 µM).

**Q.** What about the MBC [11] of the same compound?
**A.** Its MBC is 7.81 µg/mL (≈ 4.5 µM).

**Q.** What about the MIC in the presence of FeCl3 ([12]; 4 µM FeCl3, unit inferred) of the same compound?
**A.** Its MIC in the presence of FeCl3 is 3.91 µg/mL.

**Q.** What about the MIC in the presence of NH4Cl ([12]; 6 µM NH4Cl, unit inferred) of the same compound?
**A.** The MIC in the presence of NH4Cl was 3.91 µg/mL.

**Q.** What about the MIC in the presence of ZnCl2 ([12]; 8 µM ZnCl2, unit inferred) of the same compound?
**A.** The MIC in the presence of ZnCl2 was 3.91 µg/mL.

**Q.** What about the MIC in the presence of MgCl2 ([12]; 1 mM MgCl2, unit inferred) of the same compound?
**A.** The MIC in the presence of MgCl2 was 31.2 µg/mL.

**Q.** And the “increase of MIC in the presence of K+” value ([12]; 4.5 mM KCl versus control)?
**A.** Its value is 2 fold.

**Q.** And the MIC in the presence of KCl ([12]; 4.5 mM KCl, unit inferred)?
**A.** Its MIC in the presence of KCl is 7.81 µg/mL.

**Q.** What about the MIC in the presence of NaCl ([12]; 150 mM NaCl, unit inferred) of the same compound?
**A.** The MIC in the presence of NaCl was 31.2 µg/mL.

**Q.** What about the MIC in the presence of CaCl2 ([12]; […] CaCl2, unit inferred) of the same compound?
**A.** The MIC in the presence of CaCl2 was 3.91 µg/mL.

**Q.** And the MIC, control ([12]; absence of physiological salts, unit inferred)?
**A.** Its MIC, control is 3.91 µg/mL.

**Q.** And the MIC [13]?
**A.** The MIC was 62.5 µg/mL (≈ 36 µM).
